Experimental data: EP4781986A1, “PHARMACEUTICAL COMPOSITION HAVING IMPROVED PHARMACOKINETIC PROPERTIES” (Sichuan Purity Pharmaceutical Co., Ltd., priority 2023, dated 2025)

Legend:
[1] = stability test in liver microsomes (monkey); format: in vitro ADME; conditions: Monkey liver microsomes
Protocol: (§1) The stability of the compound of the present invention in liver microsomes of rat, monkey and human was determined. Tested compounds of the present invention were the compounds in Examples 6 and 8 , and a control drug was Zavegepant.
(§2) 3.2 An appropriate amount of liver microsome solution was transferred into a 1 mL 96-deep-well plate, added with a tested drug liquid (or a probe substrate solution), and pre-incubated in a thermal mixer at 37°C for 5 minutes. Two parts of mixed solutions were taken out from the system and added with 1×PBS to replace NADPH, and the mixed solutions were taken out at 0 and 60 minutes respectively, and added with methanol (containing an internal standard) to terminate the reaction. In the remaining mixed system, each well was added with NADPH to start the reaction. In the tested substance group, mixed solutions were taken out from the system at 0, 5, 15, 30, 45 and 60 minutes, and in the control group, mixed solutions were taken out from the system at 0, 30 and 60 minutes, and the mixed solutions were added methanol (containing an internal standard) to terminate the reaction. All samples of the terminated reaction were mixed evenly and centrifuged in a centrifuge at 3800 rpm for 15 minutes, and the supernatant was taken for LC-MS/MS analysis.
(§3) A peak area was determined by an extracted ion chromatogram. A slope value k was determined by linear regression of a remaining percentage of a parent drug relative to a natural logarithm of an incubation time curve. According to the slope, in-vitro half-life periods (t1/2) were respectively calculated, and in-vitro intrinsic clearance rates (CLint, represented by µL/min/mg protein) were calculated. Calculation formulas were as follows: t1/2 = ln2/k = 0.693/k; and CLint = 0.693/t1/2 /liver microsome protein concentration [formula]

[2] = tested on: Plasma of cynomolgus monkey; assay: plasma protein binding rate test, equilibrium dialysis (monkey); format: in vitro ADME; conditions: 1 µM, 37°C, 6 hours
Protocol: (§4) Protein binding rates of the compound of the present invention in plasma of rat, monkey and human were determined by an equilibrium dialysis method. Tested compounds of the present invention were the compounds in Examples 6 and 8.
(§5) 3.1 A dry dialysis membrane was rinsed with ultrapure water for 2-3 times, and then soaked in a phosphate buffer for 1 hour for later use. Polytetrafluoroethylene module was soaked in 20% ethanol for 30 minutes, and then surface moisture was dried with dust-free paper for later use. The pretreated dialysis membrane was assembled into a dialysis plate according to the product specification, and one side (receptor compartment) of an osmotic membrane in each dialysis well was added with 100 µL of receptor fluid (100 mM phosphate buffer solution plus 0.002% Tween 80).
(§6) 3.2 The plasma was put into a centrifuge tube, a working solution of a tested substance was added into the plasma, wherein a final concentration was 1 µM, and the mixture was turned upside down and mixed evenly (this step was carried out in ice bath). 20 µL of drug-containing plasma each was taken, and was respectively transferred to a 96-well sample plate according to two parts in parallel, and stored in a refrigerator at -20°C as a T0 sample.
(§7) 3.3 Another 100 µL of the above drug-containing plasma was transferred to the other side (sample compartment) of the membrane in the dialysis device according to two parts in parallel, and incubated under vibration at a constant temperature of 37°C for 6 hours. […]
(§8) A plasma protein binding rate and a recovery rate of the compound in plasma were calculated by the following formulas: dissociation percentage (%) = CB /CA; [formula] plasma protein binding rate (fb%) = 1−dissociation percentage (%); [formula] recovery rate (%) = (CB+CA)/CT0 [formula] wherein CB was a concentration of the compound in the receptor fluid after equilibrium dialysis; CA was a concentration of the compound in the drug-containing plasma after equilibrium dialysis; and CT0 was an initial concentration of the compound in plasma.

Plasma of SD rat = assay: plasma protein binding rate test, equilibrium dialysis (rat); format: in vitro ADME; conditions: 1 µM, 37°C, 6 hours
Protocol: as §4, §5, §6, §7, §8

[3] = PK properties in SD rats with or without 0.2% alkyl glycoside (DDM); format: in vivo; conditions: for Tmax shortened by: 0.2% DDM vs without DDM; for Tmax(DDM 0.2%)/ Tmax(DDM 0%): 0.2% dodecyl-β-D-maltoside (DDM) vs without DDM; for Tmax: rat, in vivo
From the text: During preparation of a test sample in the Test Example 5, a drug solution group with 0.2% dodecyl-β-D-maltoside (DDM) was also established and prepared in parallel, so as to compare and observe changes of PK properties in rats administered with the drug solution group with 0.2% dodecyl-β-D-maltoside (DDM) and the drug solution group without dodecyl-β-D-maltoside (DDM).

[4] = stability test in liver microsomes (human); format: in vitro ADME; conditions: Human liver microsomes, 60 min
Protocol: as §1, §2, §3

Plasma of human = assay: plasma protein binding rate test, equilibrium dialysis (human); format: in vitro ADME; conditions: 1 µM, 37°C, 6 hours
Protocol: as §4, §5, §6, §7, §8

[5] = stability test in liver microsomes (rat); format: in vitro ADME; conditions: Rat liver microsomes
Protocol: as §1, §2, §3

[6] = PK properties in SD rats with different concentrations of alkyl glycoside (0.05% and 5% DDM); format: in vivo; conditions: for Tmax(DDM 0.05%)/ Tmax(DDM 0%): 0.05% DDM vs without DDM; for Tmax(DDM 5%)/ Tmax(DDM 0%): 5% DDM vs without DDM; for Tmax: rat, in vivo
From the text: During preparation of a test sample in the Test Example 7, drug solution groups with 0.05% and 5% dodecyl-β-D-maltosides (DDM) were established and prepared in parallel, so as to compare and observe changes of PK properties in rats administered with the drug solution groups with two different concentrations of dodecyl-β-D-maltosides (DDM).

[7] = intranasal, 0.05% alkyl glycoside vs without
[8] = intranasal, 5% alkyl glycoside vs without

SMILES	% remaining (60 min) [1] [%]	fb (%) [2] [%]	fb (%) (Plasma of SD rat)	Tmax shortened by ([3]; intranasal) [%]	Tmax(DDM 0.2%)/ Tmax(DDM 0%) ([3]; intranasal) [%]	% remaining (60 min) [4] [%]	fb (%) (Plasma of human)	% remaining (60 min) [5] [%]	Tmax(DDM 0.05%)/ Tmax(DDM 0%) ([6]; intranasal) [%]	Tmax shortened by [6, 7] [%]	Tmax(DDM 5%)/ Tmax(DDM 0%) ([6]; intranasal) [%]	Tmax shortened by [6, 8] [%]	further results
Cc1cc(C[C@@H](NC(=O)N2CCC(c3cc4c([nH]c3=O)SCCC4)CC2)C(=O)N2CCN(C3CCN(C)CC3)CC2)cc2cn[nH]c12 [Example 6, (R)-N-(3-(7-methyl-1H-indazole-5-yl)-1-(4-(1-methylpiperidine-4-yl)piperazine-1-yl)-1-oxopropan-2-yl)-4-(7-oxo-3,4,7,8-tetrahydro-2H-thiopyrano[2,3-b]pyridine-6-yl)piperidine-1-formamide]	96.9	61.3	90.0	83.3	16.7	131	76.7	91.5	25.0	75	8.3	91.7	CLint [1]: 0.8 µL/min/mg; Tmax ([3]; intranasal, 0.2% DDM): 10 min; Tmax ([3]; intranasal, not added with DDM (0%DDM)): 60 min; CLint [5]: 2.4 µL/min/mg; Tmax ([6]; intranasal, 0.05% alkyl glycoside): 15 min; Tmax ([6]; intranasal, 5% alkyl glycoside): 4.98 min; Tmax ([6]; intranasal, without alkyl glycoside): 60 min
Cc1cc(C[C@@H](NC(=O)N2CCC(c3cc4c([nH]c3=O)SCC4)CC2)C(=O)N2CCN(C3CCN(C)CC3)CC2)cc2cn[nH]c12 [Example 8, (R)-N-(3-(7-methyl-1H-indazole-5-yl)-1-(4-(1-methylpiperidine-4-yl)piperazine-1-yl)-1-oxopropan-2-yl)-4-(6-oxo-2,3,6,7-tetrahydrothieno[2,3-b]pyridine-5-yl)piperidine-1-formamide]	61.6	47.7	69.4	20.1	79.9	85.8	64.1	90.7	79.9	20	39.7	60	Tmax ([3]; Sprague-Dawley, inhaled or intranasal, 0.2% DDM): 10 min; Tmax ([3]; Sprague-Dawley, inhaled or intranasal, not added with DDM (0%DDM)): 12.5 min; Tmax ([6]; Sprague-Dawley, inhaled or intranasal, 0.05% alkyl glycoside): 10 min; Tmax ([6]; Sprague-Dawley, inhaled or intranasal, 5% alkyl glycoside): 4.98 min; Tmax ([6]; Sprague-Dawley, inhaled or intranasal, without alkyl glycoside): 12 min
